Measured values from ChEMBL document CHEMBL4665869, “New thiazolopyrimidine as anticancer agents: Synthesis, biological evaluation, DNA binding, molecular modeling and ADMET study” (Bioorg Med Chem Lett, 2020).
Values after ≈ are worked out from the molar mass of the structure shown.

Assays:
SNB-75 = assay: Growth inhibition of human SNB-75 cells at 10 uM relative to control; assay type: functional; settings: read-out: GI
HOP-62 = assay: Growth inhibition of human HOP-62 cells at 10 uM relative to control; assay type: functional; settings: read-out: GI
ACHN = assay: Growth inhibition of human ACHN cells at 10 uM relative to control; assay type: functional; settings: read-out: GI
A549 = assay: Growth inhibition of human A549 cells at 10 uM relative to control; assay type: functional; settings: read-out: GI
UACC-257 = assay: Growth inhibition of human UACC-257 cells at 10 uM relative to control; assay type: functional; settings: read-out: GI
T47D = assay: Growth inhibition of human T47D cells at 10 uM relative to control; assay type: functional; settings: read-out: GI
SW-620 = assay: Growth inhibition of human SW-620 cells at 10 uM relative to control; assay type: functional; settings: read-out: GI
SF-539 = assay: Growth inhibition of human SF-539 cells at 10 uM relative to control; assay type: functional; settings: read-out: GI
COLO 205 = assay: Growth inhibition of human COLO 205 cells at 10 uM relative to control; assay type: functional; settings: read-out: GI
OVCAR-4 = assay: Growth inhibition of human OVCAR-4 cells at 10 uM relative to control; assay type: functional; settings: read-out: GI
SF-295 = assay: Growth inhibition of human SF-295 cells at 10 uM relative to control; assay type: functional; settings: read-out: GI
BT-549 = assay: Growth inhibition of human BT-549 cells at 10 uM relative to control; assay type: functional; settings: read-out: GI
CCRF-CEM = assay: Growth inhibition of human CCRF-CEM cells at 10 uM relative to control; assay type: functional; settings: read-out: GI
DU-145 = assay: Growth inhibition of human DU-145 cells at 10 uM relative to control; assay type: functional; settings: read-out: GI
SK-OV-3 = assay: Growth inhibition of human SK-OV-3 cells at 10 uM relative to control; assay type: functional; settings: read-out: GI
SF-268 = assay: Growth inhibition of human SF-268 cells at 10 uM relative to control; assay type: functional; settings: read-out: GI
UO-31 = assay: Growth inhibition of human UO-31 cells at 10 uM relative to control; assay type: functional; settings: read-out: GI
A498 = assay: Growth inhibition of human A498 cells at 10 uM relative to control; assay type: functional; settings: read-out: GI
RXF 393 = assay: Growth inhibition of human RXF 393 cells at 10 uM relative to control; assay type: functional; settings: read-out: GI
CAKI-1 = assay: Growth inhibition of human CAKI-1 cells at 10 uM relative to control; assay type: functional; settings: read-out: GI
NCI-H322M = assay: Growth inhibition of human NCI-H322M cells at 10 uM relative to control; assay type: functional; settings: read-out: GI
HOP-92 = assay: Growth inhibition of human HOP-92 cells at 10 uM relative to control; assay type: functional; settings: read-out: GI
Hs-578T = assay: Growth inhibition of human Hs-578T cells at 10 uM relative to control; assay type: functional; settings: read-out: GI
Malme-3M = assay: Growth inhibition of human Malme-3M cells at 10 uM relative to control; assay type: functional; settings: read-out: GI
SN12C = assay: Growth inhibition of human SN12C cells at 10 uM relative to control; assay type: functional; settings: read-out: GI
HL-60(TB) = assay: Growth inhibition of human HL-60(TB) cells at 10 uM relative to control; assay type: functional; settings: read-out: GI
TK-10 = assay: Growth inhibition of human TK-10 cells at 10 uM relative to control; assay type: functional; settings: read-out: GI
HCT-15 = assay: Growth inhibition of human HCT-15 cells at 10 uM relative to control; assay type: functional; settings: read-out: GI
NCI-H460 = assay: Growth inhibition of human NCI-H460 cells at 10 uM relative to control; assay type: functional; settings: read-out: GI
HCT-116 = assay: Growth inhibition of human HCT-116 cells at 10 uM relative to control; assay type: functional; settings: read-out: GI
MDA-MB-468 = assay: Growth inhibition of human MDA-MB-468 cells at 10 uM relative to control; assay type: functional; settings: read-out: GI
SK-MEL-28 = assay: Growth inhibition of human SK-MEL-28 cells at 10 uM relative to control; assay type: functional; settings: read-out: GI
OVCAR-8 = assay: Growth inhibition of human OVCAR-8 cells at 10 uM relative to control; assay type: functional; settings: read-out: GI
786-0 = assay: Growth inhibition of human 786-0 cells at 10 uM relative to control; assay type: functional; settings: read-out: GI
M14 = assay: Growth inhibition of human M14 cells at 10 uM relative to control; assay type: functional; settings: read-out: GI
MDA-MB-231 = assay: Growth inhibition of human MDA-MB-231 cells at 10 uM relative to control; assay type: functional; settings: read-out: GI
SNB-19 = assay: Growth inhibition of human SNB-19 cells at 10 uM relative to control; assay type: functional; settings: read-out: GI
MOLT-4 = assay: Growth inhibition of human MOLT-4 cells at 10 uM relative to control; assay type: functional; settings: read-out: GI
DNA = assay: Displacement of methyl green from DNA (unknown origin) assessed as DNA intercalation after 24 hrs by colorimetric assay; assay type: nucleic-acid assay
OVCAR-5 = assay: Growth inhibition of human OVCAR-5 cells at 10 uM relative to control; assay type: functional; settings: read-out: GI
SK-MEL-5 = assay: Growth inhibition of human SK-MEL-5 cells at 10 uM relative to control; assay type: functional; settings: read-out: GI
PC-3 = assay: Growth inhibition of human PC-3 cells at 10 uM relative to control; assay type: functional; settings: read-out: GI
SK-MEL-2 = assay: Growth inhibition of human SK-MEL-2 cells at 10 uM relative to control; assay type: functional; settings: read-out: GI
IGROV-1 = assay: Growth inhibition of human IGROV-1 cells at 10 uM relative to control; assay type: functional; settings: read-out: GI
MCF7 = assay: Growth inhibition of human MCF7 cells at 10 uM relative to control; assay type: functional; settings: read-out: GI
HCC 2998 = assay: Growth inhibition of human HCC 2998 cells at 10 uM relative to control; assay type: functional; settings: read-out: GI
KM12 = assay: Growth inhibition of human KM12 cells at 10 uM relative to control; assay type: functional; settings: read-out: GI
HT-29 = assay: Growth inhibition of human HT-29 cells at 10 uM relative to control; assay type: functional; settings: read-out: GI
SR = assay: Growth inhibition of human SR cells at 10 uM relative to control; assay type: functional; settings: read-out: GI
UACC-62 = assay: Growth inhibition of human UACC-62 cells at 10 uM relative to control; assay type: functional; settings: read-out: GI
NCI-H522 = assay: Growth inhibition of human NCI-H522 cells at 10 uM relative to control; assay type: functional; settings: read-out: GI
NCI-H23 = assay: Growth inhibition of human NCI-H23 cells at 10 uM relative to control; assay type: functional; settings: read-out: GI
MDA-MB-435 = assay: Growth inhibition of human MDA-MB-435 cells at 10 uM relative to control; assay type: functional; settings: read-out: GI
LOX IMVI = assay: Growth inhibition of human LOX IMVI cells at 10 uM relative to control; assay type: functional; settings: read-out: GI
U-251 = assay: Growth inhibition of human U-251 cells at 10 uM relative to control; assay type: functional; settings: read-out: GI
NCI/ADR-RES = assay: Growth inhibition of human NCI/ADR-RES cells at 10 uM relative to control; assay type: functional; settings: read-out: GI
NCI-H226 = assay: Growth inhibition of human NCI-H226 cells at 10 uM relative to control; assay type: functional; settings: read-out: GI
K562 = assay: Growth inhibition of human K562 cells at 10 uM relative to control; assay type: functional; settings: read-out: GI
RPMI-8226 = assay: Growth inhibition of human RPMI-8226 cells at 10 uM relative to control; assay type: functional; settings: read-out: GI

## CC1=CN2C(=NC(/C=C/c3ccc(C)cc3)=CC2c2ccc(C)cc2)S1 (centres undefined)
SNB-75
  inhibition of growth at 10 µM: 13.7%
HOP-62
  inhibition of growth at 10 µM: < 10%
ACHN
  inhibition of growth at 10 µM: < 10%
A549
  inhibition of growth at 10 µM: < 10%
UACC-257
  inhibition of growth at 10 µM: < 10%
T47D
  inhibition of growth at 10 µM: < 10%
SW-620
  inhibition of growth at 10 µM: < 10%
SF-539
  inhibition of growth at 10 µM: < 10%
COLO 205
  inhibition of growth at 10 µM: < 10%
OVCAR-4
  inhibition of growth at 10 µM: < 10%
SF-295
  inhibition of growth at 10 µM: < 10%
BT-549
  inhibition of growth at 10 µM: < 10%
CCRF-CEM
  inhibition of growth at 10 µM: < 10%
DU-145
  inhibition of growth at 10 µM: < 10%
SK-OV-3
  inhibition of growth at 10 µM: < 10%
SF-268
  inhibition of growth at 10 µM: < 10%
UO-31
  inhibition of growth at 10 µM: 19.1%
A498
  inhibition of growth at 10 µM: < 10%
RXF 393
  inhibition of growth at 10 µM: < 10%
CAKI-1
  inhibition of growth at 10 µM: < 10%
NCI-H322M
  inhibition of growth at 10 µM: < 10%
HOP-92
  inhibition of growth at 10 µM: < 10%
Hs-578T
  inhibition of growth at 10 µM: < 10%
Malme-3M
  inhibition of growth at 10 µM: < 10%
SN12C
  inhibition of growth at 10 µM: < 10%
HL-60(TB)
  inhibition of growth at 10 µM: < 10%
TK-10
  inhibition of growth at 10 µM: < 10%
HCT-15
  inhibition of growth at 10 µM: < 10%
NCI-H460
  inhibition of growth at 10 µM: < 10%
HCT-116
  inhibition of growth at 10 µM: < 10%
MDA-MB-468
  inhibition of growth at 10 µM: 11.3%
SK-MEL-28
  inhibition of growth at 10 µM: < 10%
OVCAR-8
  inhibition of growth at 10 µM: < 10%
786-0
  inhibition of growth at 10 µM: < 10%
M14
  inhibition of growth at 10 µM: < 10%
MDA-MB-231
  inhibition of growth at 10 µM: < 10%
SNB-19
  inhibition of growth at 10 µM: < 10%
MOLT-4
  inhibition of growth at 10 µM: 12.6%
DNA
  IC50: 87.57 µg/mL (≈ 244 µM)
OVCAR-5
  inhibition of growth at 10 µM: < 10%
SK-MEL-5
  inhibition of growth at 10 µM: < 10%
PC-3
  inhibition of growth at 10 µM: < 10%
SK-MEL-2
  inhibition of growth at 10 µM: < 10%
IGROV-1
  inhibition of growth at 10 µM: < 10%
MCF7
  inhibition of growth at 10 µM: < 10%
HCC 2998
  inhibition of growth at 10 µM: < 10%
KM12
  inhibition of growth at 10 µM: < 10%
HT-29
  inhibition of growth at 10 µM: < 10%
SR
  inhibition of growth at 10 µM: < 10%
UACC-62
  inhibition of growth at 10 µM: < 10%
NCI-H522
  inhibition of growth at 10 µM: 10.9%
NCI-H23
  inhibition of growth at 10 µM: < 10%
MDA-MB-435
  inhibition of growth at 10 µM: < 10%
LOX IMVI
  inhibition of growth at 10 µM: < 10%
U-251
  inhibition of growth at 10 µM: < 10%
NCI/ADR-RES
  inhibition of growth at 10 µM: < 10%
NCI-H226
  inhibition of growth at 10 µM: < 10%
K562
  inhibition of growth at 10 µM: < 10%
RPMI-8226
  inhibition of growth at 10 µM: < 10%
